Activity calls are given as the source filed them. No cut-off for these calls is given here.
What was measured:
NUGC-3 [1] = experiment: Growth of human NUGC3 cells at 0.3 uM after 48 hrs by SRB assay; conditions: NUGC-3, 48 h
NUGC-3 [2] = experiment: Growth of human NUGC3 cells at 1 uM after 48 hrs by SRB assay; conditions: NUGC-3, 48 h
NUGC-3 [3] = experiment: Growth inhibition of human NUGC3 cells at 10 uM after 48 hrs by SRB assay; values are per cent of control; conditions: NUGC-3, 48 h
ACHN [4] = experiment: Growth inhibition of human ACHN cells at 1 uM after 48 hrs by SRB assay; values are per cent of control
HCT-15 [5] = experiment: Growth of human HCT15 cells at 0.3 uM after 48 hrs by SRB assay; conditions: HCT-15, 48 h
ACHN [6] = experiment: Growth of human ACHN cells at 0.1 uM after 48 hrs by SRB assay
NUGC-3 [7] = experiment: Growth inhibition of human NUGC3 cells at 3 uM after 48 hrs by SRB assay; values are per cent of control; conditions: NUGC-3, 48 h
PC-3 [8] = experiment: Growth of human PC3 cells at 10 uM after 48 hrs by SRB assay; conditions: PC-3, 48 h
HCT-15 [9] = experiment: Growth inhibition of human HCT15 cells at 1 uM after 48 hrs by SRB assay; values are per cent of control; conditions: HCT-15, 48 h
NCI-H23 [10] = experiment: Growth inhibition of human NCI-H23 cells at 1 uM after 48 hrs by SRB assay; values are per cent of control; conditions: NCI-H23, 48 h
NCI-H23 [11] = experiment: Growth inhibition of human NCI-H23 cells at 0.1 uM after 48 hrs by SRB assay; values are per cent of control; conditions: NCI-H23, 48 h
PC-3 [12] = experiment: Growth inhibition of human PC3 cells after 48 hrs by SRB assay; assay type: functional; conditions: PC-3, 48 h
PC-3 [13] = experiment: Growth inhibition of human PC3 cells at 3 uM after 48 hrs by SRB assay; values are per cent of control; conditions: PC-3, 48 h
HCT-15 [14] = experiment: Growth inhibition of human HCT15 cells at 10 uM after 48 hrs by SRB assay; values are per cent of control; conditions: HCT-15, 48 h
PC-3 [15] = experiment: Growth inhibition of human PC3 cells at 0.1 uM after 48 hrs by SRB assay; values are per cent of control; conditions: PC-3, 48 h
ACHN [16] = experiment: Growth inhibition of human ACHN cells after 48 hrs by SRB assay; assay type: functional
[17] = target: Rho-related GTP-binding protein RhoB (Homo sapiens) (UniProt P62745); experiment: Transactivation of RhoB (unknown origin) transfected in human HeLa cells at 5 uM measured over 10 secs by dual luciferase reporter gene assay; assay type: cell-based
Chain of Rho-related GTP-binding protein RhoB (Homo sapiens) (P62745 whole entry): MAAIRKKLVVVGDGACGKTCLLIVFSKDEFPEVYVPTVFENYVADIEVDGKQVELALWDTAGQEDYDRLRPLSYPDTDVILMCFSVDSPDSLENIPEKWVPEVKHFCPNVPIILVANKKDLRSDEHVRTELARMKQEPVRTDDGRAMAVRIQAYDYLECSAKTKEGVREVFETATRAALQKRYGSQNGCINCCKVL

NCI-H23 [18] = experiment: Growth inhibition of human NCI-H23 cells after 48 hrs by SRB assay; assay type: functional; conditions: NCI-H23, 48 h
MDA-MB-231 [19] = experiment: Growth of human MDA-MB-231 cells at 0.1 uM after 48 hrs by SRB assay; conditions: MDA-MB-231, 48 h
ACHN [20] = experiment: Growth of human ACHN cells at 0.3 uM after 48 hrs by SRB assay
NCI-H23 [21] = experiment: Growth inhibition of human NCI-H23 cells at 3 uM after 48 hrs by SRB assay; values are per cent of control; conditions: NCI-H23, 48 h
NUGC-3 [22] = experiment: Growth of human NUGC3 cells at 0.1 uM after 48 hrs by SRB assay; conditions: NUGC-3, 48 h
NCI-H23 [23] = experiment: Growth of human NCI-H23 cells at 10 uM after 48 hrs by SRB assay; conditions: NCI-H23, 48 h
PC-3 [24] = experiment: Growth inhibition of human PC3 cells at 1 uM after 48 hrs by SRB assay; values are per cent of control; conditions: PC-3, 48 h
NUGC-3 [25] = experiment: Growth inhibition of human NUGC3 cells after 48 hrs by SRB assay; assay type: functional; conditions: NUGC-3, 48 h
ACHN [26] = experiment: Growth inhibition of human ACHN cells at 3 uM after 48 hrs by SRB assay; values are per cent of control
MDA-MB-231 [27] = experiment: Growth of human MDA-MB-231 cells at 3 uM after 48 hrs by SRB assay; values are per cent of control; conditions: MDA-MB-231, 48 h
HCT-15 [28] = experiment: Growth of human HCT15 cells at 3 uM after 48 hrs by SRB assay; conditions: HCT-15, 48 h
MDA-MB-231 [29] = experiment: Growth inhibition of human MDA-MB-231 cells after 48 hrs by SRB assay; assay type: functional; conditions: MDA-MB-231, 48 h
PC-3 [30] = experiment: Growth inhibition of human PC3 cells at 0.3 uM after 48 hrs by SRB assay; values are per cent of control; conditions: PC-3, 48 h
MDA-MB-231 [31] = experiment: Growth inhibition of human MDA-MB-231 cells at 0.3 uM after 48 hrs by SRB assay; values are per cent of control; conditions: MDA-MB-231, 48 h
HCT-15 [32] = experiment: Growth inhibition of human HCT15 cells after 48 hrs by SRB assay; assay type: functional; conditions: HCT-15, 48 h
MDA-MB-231 [33] = experiment: Growth of human MDA-MB-231 cells at 10 uM after 48 hrs by SRB assay; conditions: MDA-MB-231, 48 h
HCT-15 [34] = experiment: Growth inhibition of human HCT15 cells at 0.1 uM after 48 hrs by SRB assay; values are per cent of control; conditions: HCT-15, 48 h
NCI-H23 [35] = experiment: Growth of human NCI-H23 cells at 0.3 uM after 48 hrs by SRB assay; conditions: NCI-H23, 48 h
MDA-MB-231 [36] = experiment: Growth of human MDA-MB-231 cells at 1 uM after 48 hrs by SRB assay; conditions: MDA-MB-231, 48 h
ACHN [37] = experiment: Growth of human ACHN cells at 10 uM after 48 hrs by SRB assay

Row | GI50 (PC-3 [12]) [nM] | GI50 (ACHN [16]) [nM] | Activity [17] | GI50 (NCI-H23 [18]) [nM] | SMILES | growth, % of control at 0.3 µM (NUGC-3 [1]) [%] | growth, % of control at 1 µM (NUGC-3 [2]) [%] | growth, % of control at 10 µM (NUGC-3 [3]) [%] | growth, % of control at 1 µM (ACHN [4]) [%] | growth, % of control at 0.3 µM (HCT-15 [5]) [%] | growth, % of control at 0.1 µM (ACHN [6]) [%] | growth, % of control at 3 µM (NUGC-3 [7]) [%] | growth, % of control at 10 µM (PC-3 [8]) [%] | growth, % of control at 1 µM (HCT-15 [9]) [%] | growth, % of control at 1 µM (NCI-H23 [10]) [%] | growth, % of control at 0.1 µM (NCI-H23 [11]) [%] | growth, % of control at 3 µM (PC-3 [13]) [%] | growth, % of control at 10 µM (HCT-15 [14]) [%] | growth, % of control at 0.1 µM (PC-3 [15]) [%] | growth, % of control at 0.1 µM (MDA-MB-231 [19]) [%] | growth, % of control at 0.3 µM (ACHN [20]) [%] | further results
1 | 620 | 3480 | Active | 890 | C=CC[N+](C)(C)CCN(C)S(=O)(=O)CCCCCCCCCCCCCCCC | 105 | 65.5 | 9.4 | 112 | 101 | 135 | 20.9 | -4.8 | 97.2 | 69.8 | 101 | 10.1 | 48.7 | 99.9 | 108 | 130 | growth, % of control at 3 µM (NCI-H23 [21]): 30.9%; growth, % of control at 0.1 µM (NUGC-3 [22]): 108%; growth, % of control at 10 µM (NCI-H23 [23]): 2.5%; growth, % of control at 1 µM (PC-3 [24]): 61.8%; GI50 (NUGC-3 [25]): 760 nM; growth, % of control at 3 µM (ACHN [26]): 69.3%; growth, % of control at 3 µM (MDA-MB-231 [27]): 39.4%; growth, % of control at 3 µM (HCT-15 [28]): 76.5%; GI50 (MDA-MB-231 [29]): 1350 nM; growth, % of control at 0.3 µM (PC-3 [30]): 95.9%; growth, % of control at 0.3 µM (MDA-MB-231 [31]): 104%; GI50 (HCT-15 [32]): 4730 nM; growth, % of control at 10 µM (MDA-MB-231 [33]): 18.4%; growth, % of control at 0.1 µM (HCT-15 [34]): 100%; growth, % of control at 0.3 µM (NCI-H23 [35]): 96.2%; growth, % of control at 1 µM (MDA-MB-231 [36]): 86.5%; growth, % of control at 10 µM (ACHN [37]): 38.6%
2 | 220 | 540 | Active | 380 | CCCCCCCCCCCCCCS(=O)(=O)N(C)CCC[N+](C)(C)CC | 46.3 | 7.9 | -18.3 | 41.7 | 87.8 | 87.9 | -12.5 | -31.6 | 68.9 | 38.4 | 96.4 | -17 | 23 | 84.9 | 95.9 | 78.5 | growth, % of control at 3 µM (NCI-H23 [21]): 3%; growth, % of control at 0.1 µM (NUGC-3 [22]): 75.5%; growth, % of control at 10 µM (NCI-H23 [23]): -16.9%; growth, % of control at 1 µM (PC-3 [24]): 14.6%; GI50 (NUGC-3 [25]): 130 nM; growth, % of control at 3 µM (ACHN [26]): 31.4%; growth, % of control at 3 µM (MDA-MB-231 [27]): 32.1%; growth, % of control at 3 µM (HCT-15 [28]): 42.2%; GI50 (MDA-MB-231 [29]): 750 nM; growth, % of control at 0.3 µM (PC-3 [30]): 68.3%; growth, % of control at 0.3 µM (MDA-MB-231 [31]): 91.4%; GI50 (HCT-15 [32]): 1270 nM; growth, % of control at 10 µM (MDA-MB-231 [33]): 7.1%; growth, % of control at 0.1 µM (HCT-15 [34]): 106%; growth, % of control at 0.3 µM (NCI-H23 [35]): 79.8%; growth, % of control at 1 µM (MDA-MB-231 [36]): 55.2%; growth, % of control at 10 µM (ACHN [37]): 16.9%
3 | 460 | 1390 | Active | 730 | C=CC[N+](C)(C)CCN(C)S(=O)(=O)CCCCCCCCCCCCCC | 97.1 | 73 | -8.4 | 80.3 | 91.6 | 92.6 | 19.3 | -22.9 | 81.8 | 70.8 | 78.2 | 8.4 | 22.6 | 86.7 | 88 | 101 | growth, % of control at 3 µM (NCI-H23 [21]): 24%; growth, % of control at 0.1 µM (NUGC-3 [22]): 91.6%; growth, % of control at 10 µM (NCI-H23 [23]): -9.2%; growth, % of control at 1 µM (PC-3 [24]): 48.6%; GI50 (NUGC-3 [25]): 830 nM; growth, % of control at 3 µM (ACHN [26]): 45.7%; growth, % of control at 3 µM (MDA-MB-231 [27]): 49.7%; growth, % of control at 3 µM (HCT-15 [28]): 49.9%; GI50 (MDA-MB-231 [29]): 1800 nM; growth, % of control at 0.3 µM (PC-3 [30]): 83%; growth, % of control at 0.3 µM (MDA-MB-231 [31]): 107%; GI50 (HCT-15 [32]): 1710 nM; growth, % of control at 10 µM (MDA-MB-231 [33]): 20.2%; growth, % of control at 0.1 µM (HCT-15 [34]): 90.5%; growth, % of control at 0.3 µM (NCI-H23 [35]): 80.4%; growth, % of control at 1 µM (MDA-MB-231 [36]): 99.4%; growth, % of control at 10 µM (ACHN [37]): -36.7%
